Source: US11851406B2, “Positive allosteric modulators of the muscarinic acetylcholine receptor M1” (Vanderbilt University, priority 2018, dated 2023)

Key:
human mAChR M1 [1] = biological target: T1, human mAChR M1 (Homo sapiens, UniProt P11229); assay: mAChR M1 cell-based functional assay (calcium mobilization), agonist activity upon compound addition alone; settings: CHO-K1 cells expressing hM1; for EC50: calcium mobilization upon compound addition, no acetylcholine; for Emax: compound alone, relative to the maximum for acetylcholine
T1 sequence (P11229 1-460): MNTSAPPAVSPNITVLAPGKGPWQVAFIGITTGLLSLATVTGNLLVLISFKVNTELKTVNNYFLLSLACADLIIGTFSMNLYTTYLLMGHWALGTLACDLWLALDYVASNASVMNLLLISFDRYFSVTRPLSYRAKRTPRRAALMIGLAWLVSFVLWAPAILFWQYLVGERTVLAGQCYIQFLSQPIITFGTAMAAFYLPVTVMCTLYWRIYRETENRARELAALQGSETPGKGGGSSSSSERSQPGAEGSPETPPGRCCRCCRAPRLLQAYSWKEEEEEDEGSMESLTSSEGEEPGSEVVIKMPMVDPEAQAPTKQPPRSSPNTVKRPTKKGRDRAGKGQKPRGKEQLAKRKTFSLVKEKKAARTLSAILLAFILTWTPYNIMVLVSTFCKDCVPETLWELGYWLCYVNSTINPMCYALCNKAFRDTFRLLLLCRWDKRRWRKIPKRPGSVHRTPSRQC
Text: (§1) Chinese hamster ovary (CHO-K1) cells stably expressing rat (r)M1 were purchased from the American Type Culture Collection and cultured according to their indicated protocol. CHO cells stably expressing human (h)M2, hM3, and hM5 were described previously (Levey, et al., 1991); hM1 and hM4 cDNAs were purchased from Missouri S&T cDNA Resource; rM4 cDNA was provided by T. I. Bonner (National Institutes of Health, Bethesda, Md.). rM2 and rM3 were cloned from a rat brain cDNA library and sequence verified. hM1, rM2, rM3, hM4, and rM4 cDNAs were used to stably transfect CHO-K1 cells purchased from the American Type Culture Collection using Lipofectamine2000. To make stable rM2, hM2, rM3, hM4, and rM4 cell lines for use in calcium mobilization assays, these cells also were stably transfected with a chimeric G-protein (Gqi5) (provided by B. R. Conklin, University of California, San Francisco) using Lipofectamine 2000. rM1, hM1, rM3, hM3, rM5, and hM5 cells were grown in Ham's F-12 medium containing 10% heat-inactivated fetal bovine serum (FBS), 20 mM HEPES, and 50 μg/mL G418 sulfate. rM2-Gqi5, hM2-Gqi5, and hM4-Gqi5 cells were grown in the same medium also containing 500 μg/mL Hygromycin B. Stable rM4-Gqi5 cells were grown in DMEM containing 10% heat-inactivated FBS, 20 mM HEPES, 400 μg/mL G418 sulfate, and 500 μg/mL Hygromycin B.
(§2) For high throughput measurement of agonist-evoked increases in intracellular calcium, CHO-K1 cells stably expressing muscarinic receptors were plated in growth medium lacking G418 and hygromycin at 15,000 cells/20 μL/well in Greiner 384-well black-walled, tissue culture (TC)-treated, clear-bottom plates (VWR). Cells were incubated overnight at 37° C. and 5% CO2. The next day, cells were washed using an ELX 405 (BioTek) with four washes (80 μL) of assay buffer then aspirated to 20 μL. Next, 20 μL of 16 μM Fluo-4/acetoxymethyl ester (Invitrogen, Carlsbad, Calif.) prepared as a 2.3 mM stock in DMSO and mixed in a 1:1 ratio with 10% (w/v) Pluronic F-127 and diluted in assay buffer was added to the wells and the cell plates were incubated for 50 min at 37° C. and 5% CO2. Dye was removed by washing with the ELX 405 (four 80 μL washes of assay buffer) then aspirated to 20 μL. Compound master plates were formatted in an 11 point CRC format (1:3 dilutions) in 100% DMSO with a starting concentration of 10 mM using the BRAVO liquid handler (Agilent). Test compound CRCs were then transferred to daughter plates (240 nL) using the Echo acoustic plate reformatter (Labcyte, Sunnyvale, Calif.) and then diluted into assay buffer (40 μL) to a 2× stock using a Thermo Fisher Combi (Thermo Fisher Scientific, Waltham, Mass.).
(§3) Calcium flux was measured using the Functional Drug Screening System (FDSS) 6000 (Hamamatsu Corporation, Tokyo, Japan) as an increase in the fluorescent static ratio. Compounds were applied to cells (20 μL, 2×) using the automated system of the FDSS 6000 at 4 s into the 300 s protocol and the data were collected at 1 Hz. At 144 s into the 300 s protocol, 10 μL of an EC20 concentration of the muscarinic receptor agonist acetylcholine was added (5×), followed by the addition of 12 μL an EC80 concentration of acetylcholine at the 230 s time point (5×). Agonist activity was analyzed as a concentration-dependent increase in calcium mobilization upon compound addition. Emax values for agonist activity are expressed relative to the maximum for acetylcholine. Positive allosteric modulator activity was analyzed as a concentration-dependent increase in the EC20 acetylcholine response. Antagonist activity was analyzed as a concentration-dependent decrease in the EC80 acetylcholine response. Concentration-response curves were generated using a four-parameter logistical equation in XLfit curve fitting software (IDBS, Bridgewater, N.J.) for Excel (Microsoft, Redmond, Wash.) or Prism (GraphPad Software, Inc., San Diego, Calif.).

human mAChR M1 [2] = biological target: T1, human mAChR M1; assay: mAChR M1 cell-based functional assay (calcium mobilization), PAM activity: increase in the EC20 acetylcholine response; settings: CHO-K1 cells expressing hM1; calcium flux (Fluo-4); potentiation of EC20 acetylcholine response
Text: as §1, §2, §3

Row | SMILES | EC50 (human mAChR M1 [1]) | Emax (human mAChR M1 [1]) | EC50 (human mAChR M1 [2]) | Emax (human mAChR M1 [2])
1 | Cn1ccc(-c2ccc(Cc3cc(C(=O)N[C@H]4CCOC[C@@H]4O)nc(-n4cccn4)c3)cc2)n1 [Compound 28, N-((3R,4S)-3-hydroxytetrahydro-2H-pyran-4-yl)-4-(4-(1-methyl-1H-pyrazol-3-yl)benzyl)-6-(1H-pyrazol-1-yl)picolinamide] | > 10 µM | 7% | 1.07 µM | 78%
2 | Cn1ccc(-c2ccc(Cc3cc(C(=O)NC4CC5(COC5)C4)nc(-n4cccn4)c3)cc2)n1 [Compound 31, 4-(4-(1-methyl-1H-pyrazol-3-yl)benzyl)-6-(1H-pyrazol-1-yl)-N-(2-oxaspiro[3.3]heptan-6-yl)picolinamide] | > 10 µM | < 5% | – | 56%
3 | Cn1ccc(-c2ccc(Cc3cc(C(=O)N[C@H]4CCC[C@@H]4O)nc(-n4cccn4)c3)cc2)n1 [Compound 33, N-((1S,2S)-2-hydroxycyclopentyl)-4-(4-(1-methyl-1H-pyrazol-3-yl)benzyl)-6-(1H-pyrazol-1-yl)picolinamide] | > 10 µM | < 5% | 5.51 µM | 69%
4 | Cn1ccc(-c2ccc(Cc3cc(C(=O)N[C@H]4CCCC[C@@H]4O)nc(-c4ccn(C)n4)c3)cc2)n1 [Compound 34, N-((1S,2S)-2-hydroxycyclohexyl)-6-(1-methyl-1H-pyrazol-3-yl)-4-(4-(1-methyl-1H-pyrazol-3-yl)benzyl)picolinamide] | > 10 µM | < 5% | 2.02 µM | 63%
5 | Cn1ccc(-c2ccc(Cc3cc(C(=O)NC4CC5(COC5)C4)nc(-c4ccn(C)n4)c3)cc2)n1 [Compound 36, 6-(1-methyl-1H-pyrazol-3-yl)-4-(4-(1-methyl-1H-pyrazol-3-yl)benzyl)-N-(2-oxaspiro[3.3]heptan-6-yl)picolinamide] | > 10 µM | < 5% | 3.71 µM | 38%
6 | Cn1ccc(-c2ccc(Cc3cc(C(=O)N[C@H]4CCOC[C@@H]4O)nc(-c4ccn(C)n4)c3)cc2)n1 [Compound 37, N-((3R,4S)-3-hydroxytetrahydro-2H-pyran-4-yl)-6-(1-methyl-1H-pyrazol-3-yl)-4-(4-(1-methyl-1H-pyrazol-3-yl)benzyl)picolinamide] | > 10 µM | < 5% | 1.56 µM | 76%
7 | Cc1c(Cc2ccc(-c3ccn(C)n3)cc2)cc(C(=O)N[C@H]2CCCC[C@@H]2O)nc1-n1cccn1 [Compound 41, N-((1S,2S)-2-hydroxycyclohexyl)-5-methyl-4-(4-(1-methyl-1H-pyrazol-3-yl)benzyl)-6-(1H-pyrazol-1-yl)picolinamide] | 7.78 µM | 26% | 0.307 µM | 79%

Second part, the compound after the results:

Row | EC50 (human mAChR M1 [1]) | Emax (human mAChR M1 [1]) | EC50 (human mAChR M1 [2]) | Emax (human mAChR M1 [2]) | SMILES
8 | > 10 µM | < 5% | 2.1 µM | 73% | Cn1ccc(-c2ccc(Cc3cc(C(=O)N[C@H]4CCCC[C@@H]4O)nc(-n4cccn4)c3)cc2)n1 [Compound 29, N-((1S,2S)-2-hydroxycyclohexyl)-4-(4-(1-methyl-1H-pyrazol-3-yl)benzyl)-6-(1H-pyrazol-1-yl)picolinamide]
9 | > 10 µM | < 5% | – | 65% | Cn1ccc(-c2ccc(Cc3cc(C(=O)NC4CCOCC4)nc(-n4cccn4)c3)cc2)n1 [Compound 30, 4-(4-(1-methyl-1H-pyrazol-3-yl)benzyl)-6-(1H-pyrazol-1-yl)-N-(tetrahydro-2H-pyran-4-yl)picolinamide]
10 | > 10 µM | < 5% | – | 46% | Cn1ccc(-c2ccc(Cc3cc(C(=O)N[C@H]4CC[C@@H]4O)nc(-n4cccn4)c3)cc2)n1 [Compound 32, N-((1S,2S)-2-hydroxycyclobutyl)-4-(4-(1-methyl-1H-pyrazol-3-yl)benzyl)-6-(1H-pyrazol-1-yl)picolinamide]
11 | > 10 µM | < 5% | – | 46% | Cn1ccc(-c2ccc(Cc3cc(C(=O)NC4CCOCC4)nc(-c4ccn(C)n4)c3)cc2)n1 [Compound 35, 6-(1-methyl-1H-pyrazol-3-yl)-4-(4-(1-methyl-1H-pyrazol-3-yl)benzyl)-N-(tetrahydro-2H-pyran-4-yl)picolinamide]
12 | > 10 µM | < 5% | 2.72 µM | 39% | Cn1ccc(-c2ccc(Cc3cc(C(=O)N[C@H]4CCC[C@@H]4O)nc(-c4ccn(C)n4)c3)cc2)n1 [Compound 38, N-((1S,2S)-2-hydroxycyclopentyl)-6-(1-methyl-1H-pyrazol-3-yl)-4-(4-(1-methyl-1H-pyrazol-3-yl)benzyl)picolinamide]
13 | > 10 µM | < 5% | 2.85 µM | 57% | Cn1cc(-c2cc(Cc3ccc(-c4ccn(C)n4)cc3)cc(C(=O)N[C@H]3CCOC[C@@H]3O)n2)cn1 [Compound 39, N-((3R,4S)-3-hydroxytetrahydro-2H-pyran-4-yl)-4-(4-(1-methyl-1H-pyrazol-3-yl)benzyl)-6-(1-methyl-1H-pyrazol-4-yl)picolinamide]
14 | > 10 µM | < 5% | 9.44 µM | 57% | Cn1cc(-c2cc(Cc3ccc(-c4ccn(C)n4)cc3)cc(C(=O)N[C@H]3CCCC[C@@H]3O)n2)cn1 [Compound 40, N-((1S,2S)-2-hydroxycyclohexyl)-4-(4-(1-methyl-1H-pyrazol-3-yl)benzyl)-6-(1-methyl-1H-pyrazol-4-yl)picolinamide]
15 | > 10 µM | < 5% | – | 83% | Cc1c(Cc2ccc(-c3ccn(C)n3)cc2)cc(C(=O)NC2CCOCC2)nc1-n1cccn1 [Compound 42, 5-methyl-4-(4-(1-methyl-1H-pyrazol-3-yl)benzyl)-6-(1H-pyrazol-1-yl)-N-(tetrahydro-2H-pyran-4-yl)picolinamide]
16 | ≥ 10 µM | 14% | 1.3 µM | 85% | Cc1c(Cc2ccc(-c3ccn(C)n3)cc2)cc(C(=O)N[C@H]2CCC[C@@H]2O)nc1-n1cccn1 [Compound 43, N-((1S,2S)-2-hydroxycyclopentyl)-5-methyl-4-(4-(1-methyl-1H-pyrazol-3-yl)benzyl)-6-(1H-pyrazol-1-yl)picolinamide]
17 | ≥ 10 µM | 23% | 1.09 µM | 83% | Cc1c(Cc2ccc(-c3ccn(C)n3)nc2)cc(C(=O)N[C@H]2CCOC[C@@H]2O)nc1-n1cccn1 [Compound 44, N-((3R,4S)-3-hydroxytetrahydro-2H-pyran-4-yl)-5-methyl-4-((6-(1-methyl-1H-pyrazol-3-yl)pyridin-3-yl)methyl)-6-(1H-pyrazol-1-yl)picolinamide]
